Assay results from ChEMBL document CHEMBL3286135, “Antiviral C-25 epimers of 26-acetoxy steroids from the South China Sea gorgonian Echinogorgia rebekka” (J Nat Prod, 2014).
Calls of active or inactive are those of the source. The calls are words filed in the database; no cut-off is given here.

How the values were obtained:
[1] = Therapeutic ratio of TC50 for mock-infected human Hep2 cells to IC50 for Respiratory syncytial virus infected in human Hep2 cells; assay type: ADME, cell-based, HEp-2; settings: read-out: TI
Bacillus cereus = test: Antibacterial activity against Bacillus cereus by broth dilution assay; assay type: functional, organism-based
Nocardia brasiliensis = test: Antibacterial activity against Nocardia brasiliensis by broth dilution assay; assay type: functional, organism-based
[2] = tested on: Respiratory syncytial virus; test: Antiviral activity against Respiratory syncytial virus infected in human Hep2 cells assessed as virus-induced cytopathicity by XTT assay; assay type: functional, organism-based; settings: HEp-2
Staphylococcus aureus = test: Antibacterial activity against Staphylococcus aureus by broth dilution assay; assay type: functional, organism-based
[3] = tested on: Staphylococcus epidermidis; test: Antibacterial activity against Staphylococcus epidermidis by broth dilution assay; assay type: functional, organism-based
[4] = Cytotoxicity against mock-infected human Hep2 cells by XTT assay; assay type: cell-based, HEp-2; settings: read-out: TC50 (the source's name)
K562 = test: Cytotoxicity against human K562 cells by MTT assay; assay type: functional, cell-based
Vibrio parahaemolyticus = test: Antibacterial activity against Vibrio parahaemolyticus by broth dilution assay; assay type: functional, organism-based
[5] = tested on: Tetragenococcus halophilus; test: Antibacterial activity against Tetragenococcus halophilus by broth dilution assay; assay type: functional
Pseudomonas putida = test: Antibacterial activity against Pseudomonas putida by broth dilution assay; assay type: functional, organism-based
Escherichia coli = test: Antibacterial activity against Escherichia coli by broth dilution assay; assay type: functional, organism-based
HL-60 = test: Cytotoxicity against human HL60 cells by MTT assay; assay type: functional, cell-based
HeLa = test: Cytotoxicity against human HeLa cells by SRB assay; assay type: functional, cell-based
A549 = test: Cytotoxicity against human A549 cells by SRB assay; assay type: functional, cell-based

SMILES	selectivity ratio [1]	Activity (Bacillus cereus)	Activity (Nocardia brasiliensis)	IC50 [2] [µM]	Activity (Staphylococcus aureus)	Activity [3]	CC50 [4] [µM]	IC50 (K562) [µM]	Activity (Vibrio parahaemolyticus)	Activity [5]	Activity (Pseudomonas putida)	Activity (Escherichia coli)	IC50 (HL-60) [µM]	Activity (HeLa)	Activity (A549)	Activity (HL-60)	Activity (K562)
CC(=O)OC[C@@H](C)C/C=C/[C@@H](C)[C@H]1CC[C@H]2[C@@H]3CC(=O)[C@@]4(O)C[C@@H](O)CC[C@]4(C)[C@H]3CC[C@]12C	16	inactive	inactive	0.78	inactive	inactive	12.6	0.85	inactive	inactive	inactive	inactive	–	–	–	–	–
CC(=O)OC[C@@H](C)[C@H](C)/C=C/[C@@H](C)[C@H]1CC[C@H]2[C@@H]3CC(=O)[C@@]4(O)C[C@@H](O)CC[C@]4(C)[C@H]3CC[C@]12C	2	inactive	inactive	0.19	inactive	inactive	0.38	6.36	inactive	inactive	inactive	inactive	8.99	–	–	–	–
CC(=O)OC[C@H](C)[C@H](C)/C=C/[C@@H](C)[C@H]1CC[C@H]2[C@@H]3CC(=O)[C@@]4(O)C[C@@H](O)CC[C@]4(C)[C@H]3CC[C@]12C	128	inactive	inactive	0.19	inactive	inactive	24.4	–	inactive	inactive	inactive	inactive	–	inactive	inactive	inactive	inactive
CC(=O)OCC(C)/C=C/[C@@H](C)[C@H]1CC[C@H]2[C@@H]3CC(=O)[C@@]4(O)C[C@@H](O)CC[C@]4(C)[C@H]3CC[C@]12C (stereo not given in full)	4	inactive	inactive	3.23	inactive	inactive	12.9	4.19	inactive	inactive	inactive	inactive	–	–	–	–	–
NC(=O)c1ncn([C@@H]2O[C@H](CO)[C@@H](O)[C@H]2O)n1 [RIBAVIRIN]	> 147	–	–	20.4	–	–	> 3000	–	–	–	–	–	–	–	–	–	–
